Assay results published in PMC5053523, “In Vitro Antibacterial Activity of Rhodanine Derivatives against Pathogenic Clinical Isolates” (PLoS ONE, 2016).
Converted amounts (≈) assume the structure as drawn. Read-outs that look alike come from different tables or passages of the source.

How the values were obtained:
Candida albicans = assay: MIC against Candida albicans; assay type: cell-based; conditions: table prints none, read-out: MIC
P. aeruginosa = assay: Broth microdilution MIC, P. aeruginosa; assay type: cell-based; conditions: Pseudomonas aeruginosa
MRSA USA300 = assay: MIC against MRSA USA300 with and without 4% human serum albumin; assay type: cell-based, Staphylococcus aureus; conditions: Staphylococcus aureus, read-out: MIC against MRSA USA300
Procedure, shortened: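 MIC measured in tryptic soy broth spiked with 4% HSA and without it, using CLSI broth microdilution on MRSA USA300. Value reported is the lowest concentration preventing bacterial growth.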

Klebsiella pneumoniae = assay: MIC with/without PMBN, Klebsiella pneumoniae; assay type: cell-based
Method: (§1) The MIC of the rhodanines and control antibiotics, in the presence of a sub-inhibitory concentration of colistin or polymixin B nonapeptide (PMBN), against Gram-negative bacteria was evaluated as described before. The antibacterial activity of the rhodanines was further investigated against E. coli SM1411Δ acrAB, a strain that is deficient in the multidrug-resistant AcrAB efflux pump, as described before.

[1] = tested on: methicillin-resistant Staphylococcus aureus (MRSA); assay: Broth microdilution MIC/MBC, MRSA; assay type: cell-based
Pseudomonas aeruginosa = assay: MIC with/without PMBN, Pseudomonas aeruginosa; assay type: cell-based
Method: as §1

Acinetobacter baumannii = assay: MIC with/without sub-MIC colistin, Acinetobacter baumannii; assay type: cell-based
Method: as §1

[2] = tested on: vancomycin resistant enterococci (VRE) E. faecium; assay: Broth microdilution MIC/MBC, VRE E. faecium; assay type: cell-based; conditions: for MIC: read-out: MIC
Bacillus Strains = assay: Broth microdilution MIC50/MIC90 and MIC range, Bacillus strains panel; assay type: cell-based, Bacillus spp.; conditions: 10 Bacillus strains
Excerpt: The broth microdilution technique was used, followed by subculturing on agar plates that were rhodanine—free. […] The MICs reported represent the lowest concentration of each compound necessary to inhibit bacterial growth and the MBCs represent the lowest concentration required to reduce the initial bacterial inoculum by ≥ 99.9%.

[3] = tested on: vancomycin resistant enterococci (VRE) E. faecalis; assay: Broth microdilution MIC/MBC, VRE E. faecalis; assay type: cell-based; conditions: for MIC: read-out: MIC
Clostridium difficile = assay: MIC against Clostridium difficile, anaerobic broth dilution; assay type: cell-based; conditions: Clostridioides difficile
Method: Clinical isolates of C. difficile were cultured on anaerobic blood agar and incubated anaerobically using container gas pack system at 37° C for 48 hours. The colonies were then suspended in pre-reduced phosphate buffered saline (PBS) and adjusted to 0.5 McFarland standard then diluted 1:300 in pre-reduced Supplemented Brain Heart Infusion broth. The bacterial suspension was then transferred to each well of 96-well plates, the drugs were added to the first row of wells in the required concentrations and serially diluted along the plates. The plates were incubated again anaerobically using container gas pack system at 37° C for 48 hours. The (MIC) recorded was the lowest concentration of the drug showing no visible growth of the bacteria.

K. pneumoniae = assay: Broth microdilution MIC, K. pneumoniae; assay type: cell-based
[4] = E. faecium HM 968 Strain ERV102
[5] = E. faecium NR31914 Strain E0120
[6] = E. faecium Patient #1–1 NR-31903
[7] = E. faecalis NR31972 Strain SF 28073

With `O=C(O)[C@H](Cc1ccccc1)N1C(=O)/C(=C/c2cccc(Oc3ccc(Cl)c(Cl)c3)c2)SC1=S` [Rh 1] as the compound, how does the MIC (Candida albicans; ATCC10231, C. albicans ATCC 10231, unit from abstract) read?
Its MIC is greater than 64 µM.

And the MIC (Candida albicans; C. albicans NR 29434, unit from abstract)?
Its MIC is greater than 64 µM.

What about the MIC (Candida albicans; C. albicans NR 29435, unit from abstract) of the same compound?
Its MIC is greater than 64 µM.

And the MIC (Candida albicans; C. albicans NR29437, unit from abstract)?
The MIC was greater than 64 µM.

And the MIC (Candida albicans; C. albicans NR29438, unit from abstract)?
The MIC was greater than 64 µM.

And the MIC (Candida albicans; C. albicans NR 29446, unit from abstract)?
Its MIC is greater than 64 µM.

What about the MIC (Candida albicans; C. albicans NR 29448, unit from abstract) of the same compound?
The MIC was greater than 64 µM.

And the MIC (Candida albicans; C. albicans NR 29449, unit from abstract)?
The MIC was greater than 64 µM.

What about the MIC (Candida albicans; C. albicans NR 29453, unit from abstract) of the same compound?
Its MIC is greater than 64 µM.

What about the MIC (Candida albicans; C. albicans NR 294436, unit from abstract) of the same compound?
Its MIC is greater than 64 µM.

What about the MIC (P. aeruginosa; ATCC9721) of the same compound?
The MIC was greater than 128 µM.

And the MIC (P. aeruginosa; ATCC15442)?
Its MIC is greater than 128 µM.

What about the MIC (MRSA USA300; 24 h, Media TSB + 4% HSA) of the same compound?
The MIC was greater than 64 µM.

And the MIC (MRSA USA300; Media TSB)?
The MIC was 8 µM (≈ 4.24 µg/mL).

And the MIC (Klebsiella pneumoniae; Klebsiella pneumoniae ATCC BAA 1706, PMBN (+) 4 μg/mL)?
Its MIC is greater than 64 µM.

What about the MIC (Klebsiella pneumoniae; Klebsiella pneumoniae ATCC BAA 2146, PMBN (+) 4 μg/mL) of the same compound?
The MIC was greater than 64 µM.

What about the MIC (Klebsiella pneumoniae; Klebsiella pneumoniae, BAA1706) of the same compound?
Its MIC is greater than 128 µM.

What about the MIC (Klebsiella pneumoniae; Klebsiella pneumoniae, BAA2146) of the same compound?
Its MIC is greater than 128 µM.

What about the MIC50 ([1]; 11 MRSA strains) of the same compound?
The MIC50 was 8 µM (≈ 4.24 µg/mL).

And the MIC90 ([1]; 11 MRSA strains)?
Its MIC90 is 8 µM (≈ 4.24 µg/mL).

What about the MBC ([1]; MRSA NRS 1) of the same compound?
Its MBC is 8 µM (≈ 4.24 µg/mL).

What about the MIC ([1]; MRSA NRS 1) of the same compound?
Its MIC is 8 µM (≈ 4.24 µg/mL).

And the MBC ([1]; MRSA NRS 19)?
Its MBC is 8 µM (≈ 4.24 µg/mL).

And the MIC ([1]; MRSA NRS 19)?
The MIC was 8 µM (≈ 4.24 µg/mL).

What about the MBC ([1]; MRSA NRS 37) of the same compound?
Its MBC is 8 µM (≈ 4.24 µg/mL).

And the MIC ([1]; MRSA NRS 37)?
The MIC was 8 µM (≈ 4.24 µg/mL).

What about the MBC ([1]; MRSA NRS 107) of the same compound?
Its MBC is 8 µM (≈ 4.24 µg/mL).

What about the MIC ([1]; MRSA NRS 107) of the same compound?
Its MIC is 8 µM (≈ 4.24 µg/mL).

And the MBC ([1]; MRSA NRS 119)?
The MBC was 8 µM (≈ 4.24 µg/mL).

And the MIC ([1]; MRSA NRS 119)?
Its MIC is 8 µM (≈ 4.24 µg/mL).

And the MBC ([1]; MRSA NRS 382)?
The MBC was 8 µM (≈ 4.24 µg/mL).

What about the MIC ([1]; MRSA NRS 382) of the same compound?
The MIC was 8 µM (≈ 4.24 µg/mL).

What about the MBC ([1]; MRSA NRS 383) of the same compound?
Its MBC is 8 µM (≈ 4.24 µg/mL).

What about the MIC ([1]; MRSA NRS 383) of the same compound?
Its MIC is 8 µM (≈ 4.24 µg/mL).

And the MBC ([1]; MRSA NRS 384)?
Its MBC is 32 µM (≈ 17 µg/mL).

What about the MIC ([1]; MRSA NRS 384) of the same compound?
The MIC was 8 µM (≈ 4.24 µg/mL).

What about the MBC ([1]; MRSA NRS 385) of the same compound?
The MBC was 8 µM (≈ 4.24 µg/mL).

What about the MIC ([1]; MRSA NRS 385) of the same compound?
Its MIC is 8 µM (≈ 4.24 µg/mL).

And the MBC ([1]; MRSA NRS 386)?
The MBC was 16 µM (≈ 8.49 µg/mL).

And the MIC ([1]; MRSA NRS 386)?
Its MIC is 8 µM (≈ 4.24 µg/mL).

What about the MBC ([1]; MRSA NRS 387) of the same compound?
Its MBC is 8 µM (≈ 4.24 µg/mL).

And the MIC ([1]; MRSA NRS 387)?
Its MIC is 8 µM (≈ 4.24 µg/mL).

And the MIC (Pseudomonas aeruginosa; Pseudomonas aeruginosa ATCC 9721, PMBN (+) 4 μg/mL, read-out: MIC)?
Its MIC is greater than 64 µM.

And the MIC (Pseudomonas aeruginosa; Pseudomonas aeruginosa, ATCC9721)?
The MIC was greater than 128 µM.

What about the MIC (Acinetobacter baumannii; Acinetobacter baumannii ATCC BAA747, colistin (+) […], read-out: MIC) of the same compound?
Its MIC is greater than 64 µM.

What about the MIC (Acinetobacter baumannii; Acinetobacter baumannii ATCC BAA19606, colistin (+) […], read-out: MIC) of the same compound?
The MIC was greater than 64 µM.

And the MIC (Acinetobacter baumannii; Acinetobacter baumannii, ATCCBAA747)?
Its MIC is greater than 128 µM.

And the MIC (Acinetobacter baumannii; Acinetobacter baumannii, ATCCBAA19606)?
The MIC was greater than 128 µM.

What about the MBC ([2]; E. faecium E417 HM-965) of the same compound?
Its MBC is greater than 64 µM.

What about the MIC ([2]; E. faecium E417 HM-965) of the same compound?
Its MIC is 8 µM (≈ 4.24 µg/mL).

What about the MBC ([2]; E. faecium E1071 NR-28978) of the same compound?
The MBC was 64 µM (≈ 33.9 µg/mL).

And the MIC ([2]; E. faecium E1071 NR-28978)?
The MIC was 8 µM (≈ 4.24 µg/mL).

And the MBC [2, 4]?
The MBC was 32 µM (≈ 17 µg/mL).

And the MIC [2, 4]?
Its MIC is 8 µM (≈ 4.24 µg/mL).

What about the MBC [2, 5] of the same compound?
Its MBC is 64 µM (≈ 33.9 µg/mL).

And the MIC [2, 5]?
Its MIC is 8 µM (≈ 4.24 µg/mL).

What about the MBC [2, 6] of the same compound?
Its MBC is 16 µM (≈ 8.49 µg/mL).

And the MIC [2, 6]?
Its MIC is 4 µM (≈ 2.12 µg/mL).

What about the MIC50 (Bacillus Strains) of the same compound?
The MIC50 was 4 µM (≈ 2.12 µg/mL).

What about the MIC90 (Bacillus Strains) of the same compound?
Its MIC90 is 4 µM (≈ 2.12 µg/mL).

And the MBC ([3]; E. faecalis ERV103 HM-934)?
Its MBC is 8 µM (≈ 4.24 µg/mL).

And the MIC ([3]; E. faecalis ERV103 HM-934)?
Its MIC is 8 µM (≈ 4.24 µg/mL).

What about the MBC [3, 7] of the same compound?
The MBC was 32 µM (≈ 17 µg/mL).

What about the MIC [3, 7] of the same compound?
Its MIC is 8 µM (≈ 4.24 µg/mL).

What about the MBC ([3]; E. faecalis R712 HM-335) of the same compound?
The MBC was 8 µM (≈ 4.24 µg/mL).

What about the MIC ([3]; E. faecalis R712 HM-335) of the same compound?
Its MIC is 4 µM (≈ 2.12 µg/mL).

What about the MBC ([3]; E. faecalis S613 HM-334) of the same compound?
Its MBC is 8 µM (≈ 4.24 µg/mL).

What about the MIC ([3]; E. faecalis S613 HM-334) of the same compound?
Its MIC is 8 µM (≈ 4.24 µg/mL).

What about the MBC ([3]; E. faecalis TX0104 HM-201) of the same compound?
The MBC was 8 µM (≈ 4.24 µg/mL).

What about the MIC ([3]; E. faecalis TX0104 HM-201) of the same compound?
Its MIC is 8 µM (≈ 4.24 µg/mL).

What about the MIC (Clostridium difficile; C. difficile HM-88) of the same compound?
The MIC was 4 µM (≈ 2.12 µg/mL).

And the MIC (Clostridium difficile; C. difficile HM-745)?
The MIC was 2 µM (≈ 1.06 µg/mL).

What about the MIC (Clostridium difficile; C. difficile HM-746) of the same compound?
Its MIC is 4 µM (≈ 2.12 µg/mL).

What about the MIC (Clostridium difficile; C. difficile Isolate-1 NR-13427) of the same compound?
The MIC was 4 µM (≈ 2.12 µg/mL).

And the MIC (Clostridium difficile; C. difficile Toxigenic Strain P8 NR-32888)?
The MIC was 4 µM (≈ 2.12 µg/mL).

What about the MIC (K. pneumoniae; K. pneumoniae NR-15417) of the same compound?
The MIC was greater than 128 µM.

And the MIC (K. pneumoniae; Klebsiella pneumoniae)?
Its MIC is greater than 128 µM.
